Experimental data from patent US10478437B2, “Combination therapy to enhance the anticancer efficacy of platinum drugs” (University of Pittsburgh-of the Commonwealth System of …, priority 2014, dated 2019).
“Also recorded” adds a separate entry of the source.

Tests used:
Format in all cases: cell-based, human
[1] = tested on: cisplatin-resistant ovarian cancer cell line A2780cis; assay: Caspase-3/7 activity assay (apoptotic cell death), compound alone or with cisplatin; settings: for caspase-3/7 activity (Lum) with compound and cisplatin (20 μM) / caspase-3/7 activity (Lum) with compound alone: Table 6; for caspase-3/7 activity (Lum) with compound alone: untreated cells 9 ± 1
Summary of the method: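 Caspase-3/7 activity in A2780cis cells treated with compound alone or with cisplatin, luminescent Caspase-Glo 3/7 read-out. Apoptotic morphology is checked microscopically just before measurement.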

[2] = tested on: A2780cis cells; assay: Short-term (3 h) exposure, cell survival by CellTiter-Blue after 48 h in compound free media; settings: 20 μM compound with various doses of cisplatin, viability after two days, in words
Method: FIG. 5. Short-term exposure of A2780cis cells to the combination of cisplatin and compound 1-6 dramatically reduces cell survival. A2780cis cells were treated with increasing doses of cisplatin alone or the combination of cisplatin with compound 1-6 (20 μM) for 3 h. The compounds were then washed out. Cell survival was determined after 48 h incubation of cells in compound free media by CellTiter-Blue assay.
Further analysis was performed with compound 1-6. […] This synergism for the combination of cisplatin and 1-6 was further confirmed using a fresh sample of high chemical purity (98%). This synergistic effect was also observed using the CellTiter-Blue cell viability assay (FIG. 5) under an alternative exposure strategy that mimics in viva drug administration to test the combination effect. Considering the clearance of cisplatin over the time and the duration of exposure of tumor cells to the effective doses of the drugs in vivo (Los et al., 1989), a short-term exposure of cells to the combination of 20 μM of 1-6 with various doses of cisplatin was tested, followed by cell viability assay after two days.

[3] = tested on: A2780cis cells; assay: Extracellular flux analysis, oxygen consumption rate (OCR), Seahorse XF24; settings: compound 50 μM + cisplatin 50 μM, 4 h, FIG. 8B; in words
Method: Oxygen consumption rate (OCR) and extracellular acidification rate (ECAR) were measured as previously described (Qian and Van Houten, 2010). Cells were seeded in XF24 cell culture plates at 4×10^4 cells/well and incubated in 5% CO2 at 37° C. Prior to the analysis, cells were washed and growth medium was replaced with bicarbonate-free modified RPMI 1640 medium, the “assay medium” (Molecular Devices, Sunnyvale, Calif.). Cells were then incubated for another 60 min in a 37° C. incubator without CO2. OCR and ECAR measurements were then performed simultaneously using a Seahorse XF24 Extracellular Flux Analyzer (Seahorse Bioscience, North Billerica, Mass.).
To determine the effects of the compounds on DNA damage and mitochondrial dysfunction, A2780cis cells were treated with cisplatin (20 μM) alone or the combination of cisplatin with 20 μM of compound 1-6. Replication protein A (RPA) is a single strand-specific DNA-binding protein, consisting of three subunits, RPA70, RPA32, and RPA14. RPA32 is phosphorylated in response to DNA replication stress. Western blot analysis was performed to evaluate the phosphorylation of RPA32 and histone H2AX, the induction of Noxa expression and cleavage of caspase-3. […] The oxygen consumption rate (OCR) was measured by a Seahorse extracellular flux analyzer.

[4] = tested on: PEO4, SKOV3, H1299, MDA-MB-231, Ca133 cells; assay: Western blot of PARP and Caspase-3 cleavage in other cisplatin-resistant cancer cells; settings: 20 h, FIG. 9, in words
Method: FIG. 9. The combination of cisplatin and compound 1-6 triggers extensive apoptosis in various types of cisplatin- and multidrug-resistant tumor cells. Cisplatin-resistant cancer cells PEO4 (ovarian), SKOV3 (ovarian), H1299 (lung), MDA-MB-231 (breast), Ca133 (head & neck) were treated with DMSO (untreated), cisplatin (20 μM) alone, compound 1-6 (20 μM) alone, or the combination for 20 h. Cleavage of PARP and Caspase-3 were determined by western blot.
Whole cell lysate was prepared by lysing cells in cell lysis buffer (Cell signaling technology) containing complete protease inhibitor (Roche). Cell lysates were then cleared at 15,000 rpm for 15 min at 4° C. The protein content was quantified using a Bio-Rad Protein Assay kit (Bio-Rad Laboratories, Hercules, Calif.). The equal amount of protein was separated on Tris-glycine gels (Invitrogen). The separated proteins were blotted onto a polyvinylidene difluoride membrane and blocked overnight at 4° C. in phosphate-buffered saline containing 0.1% Tween 20 and 10% nonfat dry milk (blocking buffer). Membranes were incubated with primary antibodies in blocking buffer overnight at 4° C. Primary antibodies used were: β-actin from Sigma; Bax, Bak, Caspase-9 and cleaved Caspase-3 from Cell Signaling Technology; phospho-Histone H2AX (Ser 139) and Noxa from Millipore. Membranes were then washed and incubated in peroxidase conjugated anti-rabbit IgG (Sigma) or anti-mouse IgG (Sigma) secondary antibody for 1 h at room temperature. Membranes were developed using SuperSignal West Femto Maximum Sensitivity Substrate (Thermo Fisher Scientific).
To evaluate whether the synergistic effects of the disclosed compounds and cisplatin could be extended to other types of cancer cells, breast cancer cells (MDA-MB-231), non-small cell lung carcinoma cells (H-1299), ovarian cancer cells (PEO4 and SKOV3) and head and neck cancer cells (Ca133) were treated with various combinations of cisplatin and compound 1-6 and analyzed for Caspase-3.

Compound: CCOCCCn1c(=S)[nH]c2c(C)cccc2c1=O [Compound 1-6]
- activation of Caspase-3/7 in combination with cisplatin compared to mdivi-1 ([1]; FIG. 7A and Table 6, in words): more effective; also recorded: more potent than mdivi-1
- caspase-3/7 activity (Lum), compound with cisplatin ([1]; Table 1, compound 20 μM with 20 μM cisplatin, 20 h): 145 ± 6 Lum
- caspase-3/7 activity (Lum), compound alone ([1]; Table 1, compound 20 μM, 20 h, mean ± S.D. of triplicates): 12 ± 0 Lum
- caspase-3/7 activity (Lum), compound alone ([1]; Table 2, compound 20 μM, 20 h): 12 ± 0 Lum
- caspase-3/7 activity (Lum) with compound and cisplatin (20 μM) ([1]; compound 5 μM + cisplatin 20 μM, 20 h): 22 ± 1 Lum
- caspase-3/7 activity (Lum) with compound alone ([1]; compound 5 μM, 20 h): 10 ± 1 Lum
- caspase-3/7 activity (Lum) with compound and cisplatin (20 μM) ([1]; compound 10 μM + cisplatin 20 μM, 20 h): 67 ± 3 Lum
- caspase-3/7 activity (Lum) with compound alone ([1]; compound 10 μM, 20 h): 10 ± 1 Lum
- caspase-3/7 activity (Lum) with compound and cisplatin (20 μM) ([1]; compound 20 μM + cisplatin 20 μM, 20 h): 105 ± 7 Lum
- caspase-3/7 activity (Lum) with compound alone ([1]; compound 20 μM, 20 h): 11 ± 2 Lum
- activity in the screen (Caspase-3/7 activity and microscopic examination), active / inactive ([1]; alone or in the presence of cisplatin, in words): active
- Caspase-3/7 activity upon combination with cisplatin compared to cisplatin alone or compound alone ([1]; in words): increase in Caspase-3/7 activity
- effect of 3 hr exposure to the combination with cisplatin on proliferation [2]: severe long-term proliferation defect
- mitochondrial function (OCR, response to oligomycin) after combination with cisplatin [3]: uncoupling of mitochondria was observed
- cell death after single compound exposure ([4]; 20 μM alone): minimal effect in inducing cell death
- cleavage of Caspase 3 and PARP, combination with cisplatin ([4]; compound 20 μM + cisplatin 20 μM): cleavage of Caspase 3 and PARP was observed
